Structures can show the parent of a compound that is named as a salt. Where two headings read alike, the source gives them in different places.

The target of experiment [1] is ROCK2 (Homo sapiens (Human), UniProt O75116). The experiment can be described thus: Z-lyte FRET assay to measure kinase inhibition, ROCK2. The format is biochemical.
The target of experiment [2] is ROCK1 (Homo sapiens (Human), UniProt Q13464). The experiment can be described thus: Z-lyte FRET assay to measure kinase inhibition, ROCK1. The format is biochemical. Conditions: for inhibition at 50 µM: read-out: ROCK1 % inhibition @ 50 μM, 50 μM compound; for IC50: read-out: ROCK1 IC50.
ROCK1, sequence (Q13464 whole entry): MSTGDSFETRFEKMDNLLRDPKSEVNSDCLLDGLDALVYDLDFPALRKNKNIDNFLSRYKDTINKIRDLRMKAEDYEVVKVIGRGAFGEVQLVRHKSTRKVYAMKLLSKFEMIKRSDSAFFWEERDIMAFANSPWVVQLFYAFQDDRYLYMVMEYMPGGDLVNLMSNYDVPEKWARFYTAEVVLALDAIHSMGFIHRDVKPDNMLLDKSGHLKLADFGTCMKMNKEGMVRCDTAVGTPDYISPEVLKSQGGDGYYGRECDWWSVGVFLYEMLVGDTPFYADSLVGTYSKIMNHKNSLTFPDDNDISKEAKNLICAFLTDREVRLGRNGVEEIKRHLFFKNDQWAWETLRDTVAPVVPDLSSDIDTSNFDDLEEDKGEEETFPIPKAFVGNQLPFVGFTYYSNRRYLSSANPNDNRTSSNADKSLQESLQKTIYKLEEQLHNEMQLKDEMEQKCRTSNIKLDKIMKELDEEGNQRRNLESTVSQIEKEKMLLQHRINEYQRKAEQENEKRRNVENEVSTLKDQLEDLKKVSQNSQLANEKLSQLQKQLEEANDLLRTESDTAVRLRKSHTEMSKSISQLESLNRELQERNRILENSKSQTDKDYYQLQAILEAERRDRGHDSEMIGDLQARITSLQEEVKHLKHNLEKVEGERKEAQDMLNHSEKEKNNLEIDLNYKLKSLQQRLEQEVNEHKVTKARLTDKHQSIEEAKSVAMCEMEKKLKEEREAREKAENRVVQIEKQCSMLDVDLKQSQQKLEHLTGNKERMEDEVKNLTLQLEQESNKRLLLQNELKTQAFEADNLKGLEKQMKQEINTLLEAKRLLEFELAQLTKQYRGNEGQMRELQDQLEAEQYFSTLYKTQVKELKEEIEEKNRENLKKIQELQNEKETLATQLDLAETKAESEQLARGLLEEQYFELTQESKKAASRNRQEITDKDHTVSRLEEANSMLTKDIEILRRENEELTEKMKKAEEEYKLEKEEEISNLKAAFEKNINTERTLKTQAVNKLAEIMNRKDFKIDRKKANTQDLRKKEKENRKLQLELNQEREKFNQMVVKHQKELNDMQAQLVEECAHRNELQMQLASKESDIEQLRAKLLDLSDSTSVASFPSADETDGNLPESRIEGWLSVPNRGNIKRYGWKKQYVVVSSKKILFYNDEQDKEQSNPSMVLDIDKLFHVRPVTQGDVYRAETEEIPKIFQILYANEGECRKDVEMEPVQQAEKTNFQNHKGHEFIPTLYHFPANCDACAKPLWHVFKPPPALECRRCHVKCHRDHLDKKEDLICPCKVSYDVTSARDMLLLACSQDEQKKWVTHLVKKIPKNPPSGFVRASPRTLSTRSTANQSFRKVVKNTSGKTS

ROCK2, sequence (O75116 whole entry, species assumed): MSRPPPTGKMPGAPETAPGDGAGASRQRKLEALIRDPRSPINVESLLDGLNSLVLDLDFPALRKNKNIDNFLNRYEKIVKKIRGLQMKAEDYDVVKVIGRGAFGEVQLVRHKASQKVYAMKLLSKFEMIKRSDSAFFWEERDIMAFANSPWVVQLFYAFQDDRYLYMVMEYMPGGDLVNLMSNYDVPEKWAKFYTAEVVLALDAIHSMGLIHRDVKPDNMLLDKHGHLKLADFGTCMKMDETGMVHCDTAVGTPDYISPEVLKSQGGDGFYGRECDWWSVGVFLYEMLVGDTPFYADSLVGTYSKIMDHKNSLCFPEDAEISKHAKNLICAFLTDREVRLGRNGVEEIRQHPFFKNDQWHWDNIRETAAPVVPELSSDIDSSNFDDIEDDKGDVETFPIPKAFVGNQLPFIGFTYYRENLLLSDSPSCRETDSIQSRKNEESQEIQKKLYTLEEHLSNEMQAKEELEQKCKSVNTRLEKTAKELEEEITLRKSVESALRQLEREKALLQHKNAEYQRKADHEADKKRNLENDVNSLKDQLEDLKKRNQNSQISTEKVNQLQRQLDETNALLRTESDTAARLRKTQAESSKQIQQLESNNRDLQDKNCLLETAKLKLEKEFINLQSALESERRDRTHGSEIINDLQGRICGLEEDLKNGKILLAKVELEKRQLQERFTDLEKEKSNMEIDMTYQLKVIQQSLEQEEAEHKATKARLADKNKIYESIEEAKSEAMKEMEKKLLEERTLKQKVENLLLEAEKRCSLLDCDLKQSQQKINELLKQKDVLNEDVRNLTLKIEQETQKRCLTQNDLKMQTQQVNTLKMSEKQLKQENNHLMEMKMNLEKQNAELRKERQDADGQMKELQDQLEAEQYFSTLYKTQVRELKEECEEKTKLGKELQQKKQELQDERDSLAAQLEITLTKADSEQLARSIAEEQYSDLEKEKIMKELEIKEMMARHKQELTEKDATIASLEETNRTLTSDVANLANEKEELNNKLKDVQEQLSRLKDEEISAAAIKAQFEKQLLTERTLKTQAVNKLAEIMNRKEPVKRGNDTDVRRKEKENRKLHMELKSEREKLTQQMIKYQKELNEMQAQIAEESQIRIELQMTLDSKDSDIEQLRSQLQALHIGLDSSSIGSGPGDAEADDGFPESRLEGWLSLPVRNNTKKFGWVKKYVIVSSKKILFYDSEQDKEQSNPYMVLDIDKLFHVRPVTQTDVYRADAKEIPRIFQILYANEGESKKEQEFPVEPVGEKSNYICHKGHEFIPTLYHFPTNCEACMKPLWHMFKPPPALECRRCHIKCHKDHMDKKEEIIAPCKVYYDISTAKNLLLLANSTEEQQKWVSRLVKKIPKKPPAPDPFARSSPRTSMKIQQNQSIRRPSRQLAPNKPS

What is called IC50 is the concentration needed to halve the response being measured. As a reminder, the inhibition is the relative decrease from the control value, in per cent. As for `COc1cccc(CNC(=O)c2cccc3c2ccn3-c2ccnc(N)n2)c1`, the IC50 was 0.04 ± 0.03 µM in experiment [1] and 0.15 ± 0.02 µM in experiment [2]. The inhibition at 50 µM in experiment [2] came out at 93 ± 7%.
For `CS(=O)(=O)c1cccc(Nc2ccnc(N)n2)c1`, the IC50 in experiment [1] is 7.3 ± 2 µM. In experiment [2], the inhibition at 50 µM amounted to 90 ± 1% and the IC50 was 6.7 ± 1.3 µM.
For `Nc1nccc(-n2ccc3c(C(=O)NCc4ccccc4)cccc32)n1` the same measures were 0.2 ± 0.1 µM, 92 ± 1% and 1 ± 0.5 µM.
Consider `Nc1nccc(-n2cnc3ccccc32)n1`, for which half-maximal inhibition in experiment [1] (IC50) required 37.4 ± 4 µM. In experiment [2], the inhibition at 50 µM was 50 ± 1% and the IC50 was 38.7 ± 1.6 µM.
For `Nc1nccc(Nc2cccc(S(N)(=O)=O)c2)n1` the same measures were 6.1 ± 1.1 µM, 90 ± 2% and 6.1 ± 0.6 µM.
On the same counts, the results for `Nc1nccc(N2CCc3c(OCc4ccccc4)cccc32)n1` are 0.25 ± 0.07 µM, 90 ± 1% and 0.48 ± 0.099 µM.
As for `CC1Cc2cc(Cl)ccc2N1c1ccnc(N)n1` (centres unmarked), the IC50 in experiment [1] is 0.5 ± 0.03 µM. Moreover, in experiment [2], the inhibition at 50 µM was 87 ± 10% and the IC50 turned out to be 1.2 ± 0.1 µM.
On to `Nc1nccc(-n2ccc3cc(OCc4ccccc4)ccc32)n1`, for which the IC50 came to 16.3 ± 5.5 µM in experiment [1] and 39 ± 6.9 µM in experiment [2]. In experiment [2], the inhibition at 50 µM was determined as 76 ± 2%.
On the same counts, the results for `CS(=O)(=O)c1ccc2c(c1)CCN2c1ccnc(N)n1` are 37.9 ± 2 µM, 41 ± 2.3 µM and 49 ± 4%.
Regarding `COC(=O)c1cccc(Nc2ccnc(N)n2)c1`, in experiment [1], the IC50 turned out to be 39.6 ± 6.2 µM. In addition, in experiment [2], the inhibition at 50 µM was found to be 63 ± 5% and the IC50 came to 37 ± 8.8 µM.
On to `Nc1nccc(-n2ccc3ccc(Cl)cc32)n1`, for which the IC50 in experiment [1] stood at 1 ± 0.3 µM. Further, in experiment [2], the inhibition at 50 µM turned out to be 88 ± 0.3% and the IC50 amounted to 1.2 ± 0.2 µM.
For the compound `COc1ccccc1CNC(=O)c1cccc2c1ccn2-c1ccnc(N)n1`, the IC50 in experiment [1] worked out at 1.8 ± 0.68 µM; in experiment [2], 6 ± 2 µM. In addition, the inhibition at 50 µM in experiment [2] stood at 69 ± 3%.
In the case of `Nc1nccc(-n2ccc3cc(Br)ccc32)n1`, the IC50 stood at 1.7 ± 0.3 µM in experiment [1] and 2.1 ± 0.3 µM in experiment [2]. Besides, the inhibition at 50 µM in experiment [2] stood at 89 ± 1%.
On the same counts, the results for `C[C@H](NC(=O)c1cccc2c1ccn2-c1ccnc(N)n1)c1ccccc1` are 1.2 ± 0.32 µM, 3.43 ± 0.44 µM and 102.2 ± 0.2%.
Consider `Nc1nccc(Nc2ccc(S(N)(=O)=O)cc2)n1` [1aa, 4-(2-Aminopyrimidin-4-ylamino)benzenesulfonamide hydrochloride], for which the IC50 was found to be 25 µM in experiment [1] (hydrochloride) and 38 µM in experiment [2] (hydrochloride).
As for `Nc1nccc(-n2ccc3c(OCc4ccccc4)cccc32)n1`, in experiment [1], the IC50 turned out to be 0.4 ± 0.1 µM. In experiment [2], the inhibition at 50 µM stood at 80 ± 3% and the IC50 came to 0.8 ± 0.5 µM.
For the compound `Nc1nccc(Nc2ccc(S(N)(=O)=O)cc2)n1` [drawing 83], in experiment [1], inhibition was half-maximal at 25.5 ± 5.8 µM (IC50). Moreover, in experiment [2], the inhibition at 50 µM stood at 60 ± 3% and the IC50 is 38.5 ± 3.4 µM.
For `Nc1nccc(Nc2ccccc2)n1` the same measures were > 50 µM, 47 ± 6% and 55.3 ± 13.4 µM.
In turn, `Nc1nccc(N2CCc3ccccc32)n1` returned an IC50 in experiment [1] of 3.4 ± 0.3 µM. Moreover, in experiment [2], the inhibition at 50 µM was determined as 85 ± 4% and the IC50 was 6.6 ± 0.5 µM.
Turning to `Nc1nccc(-n2ccc3cc(C(=O)NCCc4ccccc4)ccc32)n1`, the IC50 was 0.7 ± 0.3 µM in experiment [1] and 2.8 ± 0.3 µM in experiment [2]. Further, the inhibition at 50 µM in experiment [2] was determined as 96 ± 1%.
For `NC(=O)c1cccc(Nc2ccnc(N)n2)c1`, in experiment [1], the IC50 is 33.3 ± 2.8 µM. In experiment [2], the inhibition at 50 µM came to 54 ± 4% and the IC50 is 38.9 ± 0.9 µM.
On the same counts, the results for `Nc1nccc(-n2ccc3c(C(=O)NCc4cccc(F)c4)cccc32)n1` are 0.26 ± 0.09 µM, 72 ± 10% and 2.7 ± 1.78 µM.
As for `Nc1nccc(-n2ccc3c(OCc4cccc(Cl)c4)cccc32)n1`, the IC50 is 32.7 ± 8.1 µM in experiment [1] and 34.6 ± 8.2 µM in experiment [2]. Moreover, the inhibition at 50 µM in experiment [2] is 44 ± 9%.
On the same counts, the results for `CC1Cc2ccccc2N1c1ccnc(N)n1` (centres unmarked) are 1.9 ± 0.4 µM, 1.7 ± 0.2 µM and 97 ± 1%.
In the case of `Nc1nccc(-n2ccc3c(OCc4ccc(Cl)cc4)cccc32)n1`, inhibition in experiment [1] was half-maximal at 0.46 ± 0.08 µM (IC50). Also, in experiment [2], the inhibition at 50 µM worked out at 71 ± 2% and the IC50 was 1.9 ± 0.42 µM.
For `CC1Cc2cc([N+](=O)[O-])ccc2N1c1ccnc(N)n1` (centres unmarked) the same measures were 0.4 ± 0.1 µM, 98 ± 2% and 0.5 ± 0.1 µM.
For `Nc1nccc(N2CCc3cc(F)ccc32)n1` the same measures were 0.7 ± 0.1 µM, 89 ± 7% and 1.2 ± 0.2 µM.
`Nc1nccc(Nc2ccc(OC(F)F)cc2)n1` displayed an IC50 in experiment [1] of 23.4 ± 5.5 µM. Besides, in experiment [2], the inhibition at 50 µM was determined as 64 ± 7% and the IC50 came out at 30 ± 3.2 µM.
For `Nc1nccc(-n2ccc3ccc(F)cc32)n1` the same measures were 1.7 ± 0.1 µM, 86 ± 5% and 4.9 ± 0.5 µM.
With `COc1ccc2ccn(-c3ccnc(N)n3)c2c1`, in experiment [1], the IC50 is 4.9 ± 1 µM. In experiment [2], the inhibition at 50 µM came out at 88 ± 2% and the IC50 amounted to 4.9 ± 0.5 µM.
Regarding `Nc1nccc(Nc2ccc([N+](=O)[O-])cc2)n1`, in experiment [1], the IC50 came to 3.7 ± 0.8 µM. Besides, in experiment [2], the inhibition at 50 µM stood at 89 ± 2% and the IC50 was 3.9 ± 0.3 µM.
For `CSc1ccc(Nc2ccnc(N)n2)cc1`, the IC50 in experiment [1] is 17.1 ± 2.8 µM; in experiment [2] it was 21 ± 8.8 µM. Besides, the inhibition at 50 µM in experiment [2] amounted to 76 ± 2%.
For `Nc1nccc(-n2ccc3c(C(=O)NCc4cccc(Cl)c4)cccc32)n1` the same measures were 0.72 ± 0.13 µM, 6.8 ± 3 µM and 86 ± 4%.
For `Nc1nccc(N2CCc3ccc([N+](=O)[O-])cc32)n1` the same measures were 1.8 ± 0.3 µM, 2.2 ± 0.3 µM and 51 ± 1%.
Regarding `NC(=O)c1ccc(Nc2ccnc(N)n2)cc1`, the IC50 in experiment [1] came to 11.5 ± 1.2 µM; in experiment [2], 13.3 ± 1.7 µM. For the same compound, the inhibition at 50 µM in experiment [2] came out at 82 ± 2%.
`Nc1nccc(-n2ccc3c(C(=O)NCCc4ccccc4)cccc32)n1`: in experiment [1], the half-inhibitory concentration (IC50) is 0.5 ± 0.1 µM. In addition, in experiment [2], the inhibition at 50 µM stood at 91 ± 1% and the IC50 was 2 ± 0.5 µM.

The values above are taken from patent US9616064B2, “Rho kinase inhibitors and methods of use” (H. LEE MOFFITT CANCER CENTER AND RESEARCH INSTITUTE, INC., priority 2011, dated 2017).
